Usually melting point stands for the temperature of the solid-liquid transition.

Consider one compound from patent US6437127B1, “Substituted cycloalkenes and their use as microbices, especially as fungicides” (Bayer Aktiengesellschaft, priority 1995, dated 2002).

Data set [1] has as its system Erysiphe graminis. f. sp. tritici. The data set is described as follows: Erysiphe test (wheat)/curative. Type of data set: in vivo. The conditions noted are these: curative, sprayed 48 hours after inoculation, application rate 250 g/ha, evaluation 7 days after inoculation. How it is done:
Erysiphe Test (Wheat)/Curative Solvent: 10 parts by weight of N-methyl-pyrrolidone Emulsifier: 0.6 parts by weight of alkylaryl polyglycol ether To produce a suitable preparation of active compound, 1 part by weight of active compound is mixed with the stated amounts of solvent and emulsifier, and the concentrate is diluted with water to the desired concentration. To test for curative activity, young plants are dusted with spores of Erysiphe graminis. f. sp. tritici. 48 hours after the inoculation, the plants are sprayed with the preparation of active compound at the stated application rate. The plants are placed in a greenhouse at a temperature of about 20° C. and a relative atmospheric humidity of about 80%, in order to promote the development of mildew […]. Evaluation is carried out 7 days after the inoculation.

In data set [2] the test system is Pseudocercosporella herpotrichoides. The data set is described as follows: Pseudocercosporella herpotrichoides test (wheat)/protective. Type of data set: in vivo. The conditions noted are these: protective, application rate 250 g/ha, evaluation 21 days after inoculation. How it is done:
Pseudocercosporella Herpotrichoides Test (Wheat)/Protective Solvent: 10 parts by weight of N-methyl-pyrrolidone Emulsifier: 0.6 parts by weight of alkylaryl polyglycol ether To produce a suitable preparation of active compound, 1 part by weight of active compound is mixed with the stated amounts of solvent and emulsifier, and the concentrate is diluted with water to the desired concentration. To test for protective activity, young plants are sprayed with the preparation of active compound at the stated application rate. After the spray coating has dried on, the stem bases of the plants are inoculated with spores of Pseudocercosporella herpotrichoides. The plants are placed in a greenhouse at a temperature of about 10° C. and a relative atmospheric humidity of about 80%. Evaluation is carried out 21 days after the inoculation.

Compound `CNC(=O)C(=NOC)C1=C(/C=C/c2ccccc2)CCC1` [compound (1)] registered a melting point of 135 to 140 °C. The same compound came in with an efficacy in data set [1] of 75%. The efficacy in data set [2] turned out to be 90%.
